{"source": "paper doi:10.1101/662718v1", "about": "(biorxiv, 2019)", "key": {"ecATCase [1]": {"molecular_target": "T1, ecATCase (Escherichia coli, UniProt P0A786)", "T1 sequence (P0A786 2-311)": "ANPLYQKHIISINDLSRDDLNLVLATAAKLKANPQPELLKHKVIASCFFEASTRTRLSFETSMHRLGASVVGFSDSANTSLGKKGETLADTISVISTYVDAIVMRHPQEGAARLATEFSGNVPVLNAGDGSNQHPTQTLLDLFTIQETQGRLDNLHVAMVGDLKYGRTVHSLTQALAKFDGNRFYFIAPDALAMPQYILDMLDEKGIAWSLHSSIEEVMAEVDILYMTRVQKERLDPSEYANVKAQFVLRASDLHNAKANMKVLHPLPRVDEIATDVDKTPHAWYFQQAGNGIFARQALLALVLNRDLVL", "experiment": "ITC", "format": "binding", "settings": "50 mM Tris-acetate pH 8.3, no Asp"}, "ecATCase [2]": {"molecular_target": "T1, ecATCase", "experiment": "colorimetric ATCase activity assay, dose-response fit", "format": "biochemical"}, "huATCase": {"molecular_target": "T2, huATCase (Homo sapiens, UniProt P27708)", "T2 sequence (P27708 1915-2225 limits assumed)": "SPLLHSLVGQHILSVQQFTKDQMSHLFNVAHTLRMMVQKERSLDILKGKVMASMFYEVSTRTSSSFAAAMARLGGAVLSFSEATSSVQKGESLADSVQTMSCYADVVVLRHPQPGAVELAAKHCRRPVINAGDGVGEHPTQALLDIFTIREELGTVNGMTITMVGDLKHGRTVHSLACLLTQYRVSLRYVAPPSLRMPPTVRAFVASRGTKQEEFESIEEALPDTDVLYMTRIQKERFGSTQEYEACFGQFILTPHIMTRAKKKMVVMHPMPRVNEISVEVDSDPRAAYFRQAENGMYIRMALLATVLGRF", "experiment": "colorimetric ATCase activity assay, dose-response fit", "format": "biochemical"}}}
{"smiles": "NC(=O)OP(=O)(O)O", "note": "[CP]", "values": [{"measurement": "KD", "setting": "ecATCase [1]", "result": "all ATCase variants were able to bind CP"}]}
{"smiles": "O=c1[nH]c2ccc(Nc3nc4nonc4nc3N/N=C/c3ccccc3OCc3ccc(Cl)cc3Cl)cc2[nH]1", "note": "[YD19]", "values": [{"measurement": "IC50", "setting": "ecATCase [2]", "result": "1.8 ± 0.4", "unit": "µM"}, {"measurement": "IC50", "setting": "huATCase", "result": "4.1 ± 1.9", "unit": "µM"}]}
{"smiles": "CC(C(=O)Oc1ccc(C2C3=C(Nc4[nH]c(=O)n(C)c(=O)c42)c2ccccc2C3=O)cc1)N1C(=O)c2ccccc2C1=O", "note": "(centres unmarked) [YD21]", "values": [{"measurement": "IC50", "setting": "ecATCase [2]", "result": "5 ± 1.4", "unit": "µM"}, {"measurement": "IC50", "setting": "huATCase", "result": "15.4 ± 1.6", "unit": "µM"}]}
